Test results published in US20140179779A1, “Deuterium Substituted Fumarate Derivatives” (Biogen IDEC MA Inc., priority 2012, published 2014).
Structures can show the parent of a compound that is named as a salt.

Columns and labels:
[1] = test system: patients with relapsing-remitting MS (RRMS); conditions: compared with placebo after two years of treatment; cited from earlier work
Nrf2 [2] = assay: Nrf2 activation in MCF-7 ARE-luciferase reporter cell line; type: cell-based, Human
Procedure: (§1) Human cancer cell line DLD-1 and breast cancer cell line MCF7 reporter stable cell lines were generated by transfection with a firefly luciferase reporter construct harboring the luciferase cDNA cloned downstream of eight catenated copies of the antioxidant response element ([…] ID NO.:1). See Wang et al. Cancer Res. 2006; 66:10983-94. To measure Nrf2 activation in the ARE-luciferase reporter cell lines, the cells were plated in 96-well plates at 20-50 k cells/well 24 hours prior to stimulation with the test compounds. […] The reporter cells were harvested 24 hours-48 hours after addition of the compounds and lysed for detection of luciferase activity. Luciferase activity in the lysates was monitored using the Bright-Glo Luciferase Assay System of Promega and Tecan Genios Pro plate reader. Luciferase induction in the compound-treated cells was calculated as fold change over the baseline activity detected in control cultures treated with DMSO-containing media.

Nrf2 [3] = assay: Nrf2 activation in DLD-1 ARE-luciferase reporter cell line; type: cell-based, Human
Procedure: as §1

[4] = MCF-7/ARE-D3, 24 hr Stimulation
[5] = MCF-7/ARE-D3, 48 hr Stimulation
[6] = DLD-1/ARE-E2, 24 hr Stimulation
[7] = DLD-1/ARE-E2, 48 hr Stimulation

Structure (SMILES) | clinical relapses, accumulation of disability progression, and lesion number and volume [1] | Maximum Nrf2 Activation Fold Change (Nrf2 [2]; [4]) | concentration at maximum fold change (@ [uM]) (Nrf2 [2]; [4]) | Maximum Nrf2 Activation Fold Change (Nrf2 [2]; [5]) | concentration at maximum fold change (@ [uM]) (Nrf2 [2]; [5]) | Maximum Nrf2 Activation Fold Change (Nrf2 [3]; [6]) | concentration at maximum fold change (@ [uM]) (Nrf2 [3]; [6]) | Maximum Nrf2 Activation Fold Change (Nrf2 [3]; [7]) | concentration at maximum fold change (@ [uM]) (Nrf2 [3]; [7])
COC(=O)/C=C/C(=O)OC [DMF, dimethyl fumarate] | significantly reduced | – | – | – | – | – | – | – | –
O=C(O)/C=C/C(=O)O.[2H]C([2H])([2H])OC(=O)/C=C/C(=O)O [Example 2, (^2H3)methyl fumaric acid ester] | – | 55 fold | 1000 µM | 81 fold | 1000 µM | 6 fold | 1000 µM | 14 fold | 1000 µM
COC(=O)/C=C/C(=O)O [MMF, monomethyl fumarate] | – | 75 fold | 1000 µM | 94 fold | 750 µM | 5 fold | 1000 µM | 12 fold | 1000 µM
